Test [1] concerns HepG2 cells. Put plainly: [3H]-Thymidine incorporation assay in HepG2 cells. In kind it is cell-based, human. The procedure: Maintenance and Treatment of Cell Lines. Human HepG2 hepatocarcinoma cells and human U87MG glioma cells (ATCC, Manassas, Va.) were maintained in EMEM medium supplemented with 1% L-glutamine, 1% sodium pyruvate, 1% penicillin/streptomycin, and 10% FBS (Hyclone, Logan, Utah). The human 1321N1 astrocytoma cells (European Collection of Cell Cultures, Sigma-Aldrich) were cultured in Dulbecco's modified Eagle's medium supplemented with 10% FBS and penicillin/streptomycin. All cell lines were cultured at 37° C. in 5% CO2, and the medium was replaced every 2-3 days.
Cells were seeded in 12-well plates at approximately 50,000 cells/well and incubated at 37° C. After 24 hours, the wells were rinsed with PBS and replaced with serum-free medium containing the appropriate concentration of the test compounds. After another 24-hour incubation at 37° C., 1 μCi of [^3H]-thymidine was added to each well and incubated at 37° C. for 16 hours. [^3H]-Thymidine incorporation into DNA was monitored after the cells were washed twice with PBS and then lysed in 600 μL of 0.1N NaOH for 30 minutes with shaking. The lysate was then mixed with 3 mL of liquid scintillation cocktail (Beckman Coulter, Inc., Brea, Calif.), and radioactivity was measured by liquid scintillation counting using Beckman Coulter LS6000IC Scintillation Counter. Data are shown as CPM incorporated compared to the control cells.

Test [2] deals with 1321N1 cells. The settings on record: previously reported; read-out: Mitogenesis Inhibition in 1321N1 cells (IC50 nM)* (converted); cited from earlier work.
Test [3] has as its target T1, GPR55 (Homo sapiens, UniProt Q9Y2T6). The experiment in a line: GPR55 internalization assay in hGPR55-HEK293 cells. Format: cell-based. As to conditions: HEK293 stably expressing HA-tagged GPR55, 5 μM, 20 minutes. The procedure:
GPR55 internalization assay. Endocytosis of GPR55 was observed following a previously described protocol with minor modifications (Henstridge et al., Br. J. Pharmacol. 160: 604-614, 2010). Briefly, hGPR55-HEK293 cells were grown on Lab-Tek II CC2 chamber slides (Thermo Scientific Nunc, Rochester, N.Y.) for 48 hours in regular media and then were serum starved for 1 hour. A preincubation with 1:1000 rabbit HA antibody (Covance, Md.) was performed in the presence of vehicle (0.1% DMSO) or 1 μM MNF in serum-free media for 45 minutes at 37° C. in the CO2 incubator. Cells were then washed extensively with PBS and treated with 5 μM 01602 in serum-free media for 20 minutes at 37° C. in the CO2 incubator. Subsequently, cells were washed three times, fixed in fresh 3.7% paraformaldehyde in PBS (10 min), and incubated with anti-rabbit Alexa Fluor 488 antibody (Molecular Probes, Eugene, Oreg.; 1:1000, 30 minutes). Cells were washed and fixed for a second time prior to permeabilization with 0.2% Triton X-100 (5 minutes). Incubation with anti-rabbit Alexa Fluor 568 antibody (Molecular Probes; 1:1000, 30 minutes) was carried out to determine the extent of internalized GPR55-HA antibody complex. […]

Test [4] deals with T1, GPR55. Put plainly: Cellular uptake of TocriFluor T1117 in HepG2 cells. As to conditions: HepG2, 0.25 μM, 30 minutes pretreatment. Also noted: host or cells: HepG2 hepatocarcinoma cells. In kind it is cell-based.
Test [5] concerns HepG2 and PANC-1 cells. Put plainly: Cell morphology and EGFR expression in HepG2 and PANC-1 cells. As to conditions: 5 μM, 16 hours. In kind it is cell-based, human. The procedure: FIGS. 26A-26C show MNF interferes with inducible changes in cell morphology and expression of EGFR. […] White arrows show individual cells with filopodia. FIG. 26C, Cell lysates were prepared from similar studies and immunoblotted for EGFR. The membranes were reprobed for Hsp90, which served as a loading control.
(§1) Western blot analysis. For detection of intracellular signaling proteins, cells were lysed in radioimmunoprecipitation buffer containing EGTA and EDTA (Boston BioProducts, Ashland, Mass.). The lysis buffer contained a protease inhibitor cocktail (Sigma-Aldrich) and phosphatase inhibitor cocktail (Calbiochem, San Diego, Calif.). Equivalent amount of proteins (14 and 54 μg/well for PANC-1 and HepG2 cells, respectively) were separated on 4 to 12% precast gels (Invitrogen, Carlsbad, Calif.) using SDS-polyacrylamide gel electrophoresis under reducing conditions and then electrophoretically transferred onto polyvinylidene fluoride membrane (Invitrogen). Western blots were performed according to standard methods, which involved blocking in 5% non-fat milk and incubated with the antibody of interest, followed by incubation with a secondary antibody conjugated with the enzyme horseradish perodixase. The detection of immunoreactive bands was performed by chemiluminescence using the ECL Plus Western Blotting Detection System (GE Healthcare, Piscataway, N.J.). The quantification of bands was done by volume densitometry by using ImageJ software. The rabbit polyclonal antibodies against EGFR were obtained from Cell Signaling Technology, Inc. (Beverly, Mass.) and the monoclonal anti-Hsp90 was purchased from Santa Cruz Biotechnology, Inc. (Santa Cruz, Calif.).

The subject of test [6] is ERK1/2. Put plainly: ERK1/2 phosphorylation (GPR55 downstream signaling) in HepG2 cells. Format: cell-based, human. As to conditions: HepG2, 2.5 and 10 μM, 10 minutes. Here is the method:
as §1
Effect of MNF on O-1602-mediated increase in cell signaling. Serum-starved cells were pretreated in the absence or presence of 1 μM MNF for 10 minutes followed by a 10 minute incubation with 0, 2.5 and 10 μM O-1602 or 10% FBS, after which the levels of total ERK2 and phosphorylated forms of ERK1/2 (pErk1/2, Thr202/Tyr204), were determined by Western blotting technique. All primary antibodies were purchased from Cell Signaling Technology and used at a dilution recommended by the manufacturer.

T1 sequence (Q9Y2T6 whole entry): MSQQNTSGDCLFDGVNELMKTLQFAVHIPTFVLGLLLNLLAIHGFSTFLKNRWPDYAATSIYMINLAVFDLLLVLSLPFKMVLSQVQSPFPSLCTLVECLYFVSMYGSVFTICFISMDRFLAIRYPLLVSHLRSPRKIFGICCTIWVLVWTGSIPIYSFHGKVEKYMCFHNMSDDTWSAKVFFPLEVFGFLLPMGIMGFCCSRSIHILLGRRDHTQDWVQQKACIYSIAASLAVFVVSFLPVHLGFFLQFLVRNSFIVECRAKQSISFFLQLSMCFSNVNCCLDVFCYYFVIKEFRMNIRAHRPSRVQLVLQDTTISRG

`CCC(Cc1ccc(O)cc1)NCC(O)c1cc(O)cc(O)c1` [(R,R′)-ethylFen, (R,R′)-ethylfenoterol]: the “% Change in HepG2 cells ([3H]-thymidine incorporation)” value in test [1] (at 10 μM) is “(R,R′): 50.90 at 10 μM %”. For the same molecule, the IC50 – broadly, the concentration that gives 50% inhibition – in test [2] was 1.44 ± 0.27 nM.
On to `C[C@@H](Cc1ccc(O)cc1)NC[C@@H](O)c1cc(O)cc(O)c1` [(S,S′)-Fen, fenoterol], for which, in test [1] (1 μM, 24 h), the “% Change in HepG2 cells ([3H]-thymidine incorporation)” value stood at 9.7%. Also, the IC50 in test [2] was 184 nM.
As for `C=C(C)[C@@H]1CCC(C)=C[C@H]1c1c(C)cc(O)cc1O` [O-1602, reference compound], the “GPR55 internalization” value in test [3] is given as “led to marked endocytosis of HA-tagged GPR55”. Moreover, the “reduction in the amount of T1117 incorporated” value in test [4] worked out at 47%. The “delay in cellular accumulation of T1117” value in test [4] (10 nM T1117) turned out to be 12.5 min. In addition, the “EGFR levels” value in test [5] is listed as “led to higher EGFR levels when compared to vehicle-treated cells”. For the same molecule, in test [6], the “ERK phosphorylation” value is “dose-dependently increased ERK phosphorylation”.
